In paper PMC5086919, “Antileukemic Scalarane Sesterterpenoids and Meroditerpenoid from Carteriospongia (Phyllospongia) sp., Induce Apoptosis via Dual Inhibitory Effects on Topoisomerase II and Hsp90” (Scientific Reports, 2016):
Converted amounts (≈) assume the structure as drawn. “And” between values parts separate entries of the source, which are not always exact repeats. Equal values may be shown once. Read-outs that look alike come from different tables or passages of the source.

Experiments:
Molt 4 cells [1] = assay: MTT antiproliferative assay, leukemia Molt 4 cells; assay type: cell-based; conditions: Homo sapiens
γH2AX in Molt 4 cells = assay: Western blot of γH2AX (DNA damage biomarker); assay type: cell-based, human; conditions: 0, 0.0625, 0.125 and 0.25 μg/mL, 24 h
Description: The ability of Topo II to generate DNA damage in the presence of Topo II-targeting agents led to the hypothesis that an important determinant of drug sensitivity was related to the overall level of Topo II[17]. […] Such findings encouraged us to evaluate the effect of the isolates on Topo II activity. In order to confirm whether the DNA damage-induced by the isolated sesterterpenoids involved the inhibition of Topo II activity, a cell-free DNA cleavage assay using an enzyme-mediated negatively supercoiled pHOT1 plasmid DNA was applied. […] These marine terpenoids suppressed Topo II activity, resulting in the inhibition of supercoiled DNA relaxation in a dose-dependent manner (Fig. 5A). […] To determine whether the apoptotic mechanism of these compounds affects γH2AX (as a biomarker of DNA damage) induction, Western blot analysis was employed to examine the activation of γH2AX.
(§1) Cell lysates were prepared by treating the cells for 30 min in RIPA lysis buffer, 1% Nonidet P-40, 0.5% sodium deoxycholate, 0.1% sodium dodecyl sulphate (SDS), 1 mM sodium orthovanadate, 100 μg/mL phenylmethylsulfonyl fluoride and 30 μg/mL aprotinin) (all chemicals were from Sigma)[38]. The lysates were centrifuged at 20,000 × g for 30 min, and the protein concentration in the supernatant was determined using a BCA protein assay kit (Pierce). Equal amounts of proteins were respectively separated by 7.5%, 10% or 12% of SDS-polyacrylamide gel electrophoresis and then were electrotransferred to a PVDF membrane. The membrane was blocked with a solution containing 5% non-fat dry milk TBST buffer (20 mM Tris-HCl, pH 7.4, 150 mM NaCl and 0.1% Tween 20) for 1 h and washed with TBST buffer. The protein expressions were monitored by immunoblotting using specific antibodies. These proteins were detected by an enhanced chemiluminescence kit (Pierce).

[2] = test system: PARP and caspases in Molt 4 cells; assay: Western blot of apoptosis-related proteins; assay type: cell-based, human; conditions: 0.0625 μg/mL, time-dependent
Procedure: (§2) Oxidative stress is manifested by ROS overexpression and cannot be balanced by the available antioxidant machinery. Compound 1 can damage the integrity of mitochondria, which are the major production sites of the superoxide anion, […]. The induction of the intracellular formation of ROS by 1 was determined with a carboxyl derivative of fluorescein, carboxy-H2DCFDA dye using flow cytometric analysis. […] In addition, ROS generation could induce ER stress leading to mitochondria-related apoptosis. To further investigate if ER stress is involved in the apoptotic effect induced by 1, Western blot analysis was used to determine the expression of ER stress-related proteins. […] Furthermore, the effect of 1 on the release of intracellular Ca^2+, was evaluated using fluorescent calcium indicator, Fluo 3. […] The effect of 1 (0.0625 μg/mL) at different time intervals (0, 3, 6 and 9 h) on the level of nuclear DNA integrity was determined. […]
Cell lysates were prepared by treating the cells for 30 min in RIPA lysis buffer, 1% Nonidet P-40, 0.5% sodium deoxycholate, 0.1% sodium dodecyl sulphate (SDS), 1 mM sodium orthovanadate, 100 μg/mL phenylmethylsulfonyl fluoride and 30 μg/mL aprotinin) (all chemicals were from Sigma)[38]. The lysates were centrifuged at 20,000 × g for 30 min, and the protein concentration in the supernatant was determined using a BCA protein assay kit (Pierce). […]

Molt 4 cells [3] = assay: Neutral comet assay for DNA double-strand breaks; assay type: cell-based, human; conditions: 0.0625 μg/mL; 0, 3, 6 and 9 h; neutral electrophoresis
Procedure: as §2
The assay was carried out using a CometAssayTM Kit (Trevigen, Gaithersburg, MD, USA) following the manufacturer’s protocol for the neutral Comet assay. […] The fluorescence images were analyzed using the TriTek Comet Image program to circumscribe the “head” and the “tail” regions of each comet and the integrated fluorescence values of each defined area were recorded. The comet length was measured from the trailing edge of the nucleus to the leading edge of the tail. […]

[4] = test system: Hsp90 client proteins in Molt 4 cells; assay: Western blot of Hsp90, Hsp70, HSF 1 and Hsp90 client proteins; assay type: cell-based, human; conditions: 0.0625 μg/mL, different time intervals
Procedure: It was also reported that the induction of Hsp70 is the biomarker of Hsp90 with N-terminal inhibition. Aiming to understand the relation between Hsp90 function and the expression of Hsp70 and 90 clients, we treated Molt 4 cells with 1 (0.0625 μg/mL) for different time intervals. […] The majority of Hsps accumulate in subcellular localizations that determine whether a cell is going to die or differentiate. Erythroblasts with accumulated nuclear Hsp70 continued their differentiation process during the formation of red blood cells. Furthermore, we identified the localization of Hsp70 in response to 1 treatment using immunofluorescence by confocal microscope.
as §1

Cal-27 cells = assay: MTT antiproliferative assay, oral Cal-27 cells; conditions: Homo sapiens, CAL-27, 72 h, read-out: IC50, cytotoxicity, Oral Cal-27
Description: (§3) Several cancer cell lines including leukemia K562, Molt 4, and HL 60 cells, prostate cancer LNCaP cells, colon cancer DLD-1 cells and breast cancer T-47D cells were used to evaluate the antiproliferative activity.
(§4) The cell lines were obtained from the American Type Culture Collection (ATCC, Manassas, VA, USA). […] Dimethyl sulfoxide (DMSO), 3-(4,5-dimethylthiazol-2-yl)-2,5-diphenyl-tetrazolium bromide (MTT) and all other chemicals were purchased from Sigma-Aldrich (St. Louis, MO, USA).

K562 cells = assay: MTT antiproliferative assay, leukemia K562 cells; conditions: Homo sapiens, K562, 72 h, read-out: IC50, cytotoxicity, Leukemia K562
Description: as §3, §4

U937 cells = assay: MTT antiproliferative assay, lymphoma U937 cells; conditions: Homo sapiens, U-937, 72 h, read-out: IC50, cytotoxicity, Lymphoma U937
DLD-1 cells = assay: MTT antiproliferative assay, colon cancer DLD-1 cells; conditions: Homo sapiens, DLD-1, 72 h, read-out: IC50, cytotoxicity, Colon DLD-1
Description: as §3, §4

LNCaP cells = assay: MTT antiproliferative assay, prostate cancer LNCaP cells; conditions: Homo sapiens, 72 h, read-out: IC50, cytotoxicity, Prostate LNCaP
Description: as §3, §4

[5] = test system: all leukemia and one lymphoma cell lines; assay: MTT assay, summary statement for leukemia and lymphoma lines; conditions: read-out: IC50 against all leukemia and one lymphoma cell lines
Description: as §3, §4

With CC[C@@]1(C)CCC[C@]2(C)[C@H]3C[C@@H](OC(=O)C[C@@H](C)O)[C@]4(C)[C@@H](C=O)C(C(C)=O)=CC[C@H]4[C@]3(C)CC[C@@H]12 (relative stereo) [Compound 1, 12β-(3′β-hydroxybutanoyloxy)-20,24-dimethyl-24-oxo-scalara-16-en-25-al] the IC50 (Molt 4 cells [1]; 72 h, read-out: IC50, cytotoxicity, Leukemia Molt 4) was 0.01 µg/mL, the IC50 (Molt 4 cells [1]; molar value in brackets, read-out: antiproliferative activity (IC50), Molt 4) was 19.1 nM and the “expression of γH2AX” value (γH2AX in Molt 4 cells) was “significantly enhanced the expression of γH2AX in a dose-dependent manner”. The “PARP and caspase cleavages” value [2] was “significant increase of PARP, caspases-8 and −9 cleavages”, the “DNA migration (DSBs), comet assay” value (Molt 4 cells [3]) was “increased the degree of DNA migration” and the “expression of HSF 1 protein” value [4] was “attenuated”. For the same molecule, the “expression of Hsp70” value [4] was “increased in a time-dependent manner”, the “expression of Hsp90 client proteins (p70S6k, NFκB, Raf-1, p-GSK3β, MEK 1, XIAP, MDM 2, Rb2, CDK4, HIF 1, HSF1)” value [4] was “suppression of Hsp90 client proteins was observed” and the “expression of Hsp90 protein” value [4] was “did not notably attenuate the expression of Hsp90 protein”. The IC50 (Cal-27 cells) was 0.56 µg/mL (≈ 1.12 µM), the IC50 (K562 cells) was 0.01 µg/mL (≈ 0.02 µM) and the IC50 (U937 cells) was 0.01 µg/mL (≈ 0.02 µM). The IC50 (DLD-1 cells) was 2.33 µg/mL (≈ 4.65 µM), the IC50 (LNCaP cells) was 13.9 µg/mL (≈ 27.7 µM) and the IC50 [5] was 0.01 µg/mL and 2.08 nM.
